Assays:
[1] = target: T1, recombinant human β-secretase (rhBACE-1) (Homo sapiens, UniProt P56817); experiment: Measurement of 50% inhibition concentration (IC50) of β-secretase (BACE-1) enzyme, fluorescent substrate peptide; assay type: biochemical; details: rhBACE-1, pH 4.5, 37° C., 2.5 hr
T1 construct: purchased Invitrogen
Method: Compounds were dissolved in 0.1 M sodium acetate buffer (with 150 mM sodium chloride, pH 4.5) and 10% dimethylsulfoxide (DMSO). The solution with no compound was used as a negative control. Then, 15 μL of these solutions (final compound concentration: 0.3, 0.9, 3.0, 9.0, and 30.0 μM), 1 unit/mL of recombinant human β-secretase (rhBACE-1, Invitrogen), and 15 μL of the fluorescent substrate peptide were mixed in a black 384-well microtiter plate (Coaster). After mixtures were incubated in the dark at 37° C. for 2.5 hr, the fluorescence intensities of the mixtures were measured by fluorescence microplate reader (Wallac) at 545 nm for excitation and at 590 nm for emission. The inhibition ratio of each compound was calculated using the intensity of the solution without any compound as a negative control. The sequence of the peptide was Ser-Glu-Val-Asn-Leu-Asp-Ala-Glu-Lys-Arg, and labeled with fluorescent donor (Cy3) at Ser-1 and with quencher (Cy5Q) at Lys-9, respectively (Invitrogen) Inhibitory activities of each compound are shown in FIG. 1.

[2] = system: Aβ-40 and Aβ-42 production; experiment: Inhibitory effect on Aβ-40 and Aβ-42 production in rat primary cultured cell (Aβ ELISA of culture medium); assay type: cell-based; details: 72 hr, rat cerebral cortex primary culture
Method: Cerebral cortex was obtained from 19-20 day-old embryonic Wistar rat. The tissue was minced, dissociated using scalpel blades and Pasteur pipette in Hunks buffered solution, and centrifuged at 100 rpm. Precipitated cells were filtered using […] cell strainer, and single cells were prepared. These cells were suspended in Eagle's Minimum Essential Medium (EMEM) containing 10% Fetal bovine serum, and plated into 48-well tissue culture plates (Becton Dickinson) at 200 μL/well and 1.7×10^5 cells/cm^2. Cultures were incubated at 37° C. in a humidified atmosphere of 5% CO2. After 3, 5, and 7 days in culture, the medium was replaced, and after 9 days, CU532 was dissolved in DMSO and diluted in culture media so that the final concentration of DMSO in culture media was 0.1%, and each solution was added to each well at […] for 72 hr. The control solution contained 0.1% DMSO.
After 72 hr, Aβ-40 and Aβ-42 in culture media were measured using by Aβ ELISA kit (Wako). 100 μL of the culture medium and standard diluents were added to the antibody-coated plate, and incubated at 4° C. over night. Then the plate was washed by wash buffer 5 times and 100 μL of HRP-labeled detection antibody solution was added to the plate. After 1 hour, the plate was washed 5 times, and TMB chromogenic reagent was added to the plate. After 30 minute, stop solution was added and absorbance at 450 nm of the solution was measured by microplate reader (BIORAD). The concentration of Aβ in culture medium was calculated from the standard curve.

T1 sequence (P56817 46-501): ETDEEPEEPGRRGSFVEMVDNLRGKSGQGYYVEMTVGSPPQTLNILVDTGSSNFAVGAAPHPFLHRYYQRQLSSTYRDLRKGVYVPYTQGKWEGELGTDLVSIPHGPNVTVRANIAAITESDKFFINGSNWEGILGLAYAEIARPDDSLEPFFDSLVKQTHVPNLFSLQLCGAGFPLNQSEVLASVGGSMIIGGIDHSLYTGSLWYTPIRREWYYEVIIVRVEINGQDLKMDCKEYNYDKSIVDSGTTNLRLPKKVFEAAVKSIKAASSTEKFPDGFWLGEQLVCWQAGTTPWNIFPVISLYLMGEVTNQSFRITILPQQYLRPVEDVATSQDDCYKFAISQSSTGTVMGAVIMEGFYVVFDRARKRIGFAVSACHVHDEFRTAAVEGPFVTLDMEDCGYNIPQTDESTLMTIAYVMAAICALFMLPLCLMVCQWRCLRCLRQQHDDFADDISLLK

Structure (SMILES)	melting point [°C]	further results
COc1cc(/C=C/C(=O)CC(=O)/C=C/c2ccc(O)cc2)ccc1[N+](=O)[O-] [CU050, (1E,6E)-1-(4-hydroxyphenyl)-7-(3-methoxy-4-nitrophenyl)hepta-1,6-diene-3,5-dione]	190 to 192	IC50 [1]: 16 µM
O=C(/C=C/c1ccc(O)cc1)CC(=O)/C=C/c1cc(O)ccc1[N+](=O)[O-] [CU131, (1E,6E)-1-(5-hydroxy-2-nitrophenyl)-7-(4-hydroxyphenyl)hepta-1,6-diene-3,5-dione]	187 to 194	IC50 [1]: 0.91 µM
COc1ccc([N+](=O)[O-])c(/C=C/C(=O)CC(=O)/C=C/c2ccc(O)cc2)c1 [CU481, (1E,6E)-1-(4-hydroxyphenyl)-7-(5-methoxy-2-nitrophenyl)hepta-1,6-diene-3,5-dione]	151 to 155	IC50 [1]: 1.2 µM
Nc1ccc(O)cc1/C=C/C(=O)CC(=O)/C=C/c1ccc(O)cc1 [CU488, (1E,6E)-1-(2-amino-5-hydroxyphenyl)-7-(4-hydroxyphenyl)hepta-1,6-diene-3,5-dione]	186 to 192	IC50 [1]: 7.3 µM
O=C(/C=C/c1ccc(O)cc1)CC(=O)/C=C/c1cc(O)ccc1Br [CU532, (1E,6E)-1-(2-bromo-5-hydroxyphenyl)-7-(4-hydroxyphenyl)hepta-1,6-diene-3,5-dione]	182 to 186	amount of Aβ-42 in culture medium ([2]; at 0.3 μM): significantly decreased; amount of Aβ-40 in culture medium ([2]; at 1 μM): significantly decreased
CCOC(=O)c1cn(-c2ccccc2/C=C/C(=O)CC(=O)/C=C/c2ccc(O)cc2)nn1 [CU625, (1E,6E)-1-[2-(4-ethoxycarbonyl-1H-1,2,3-triazol-1-yl)phenyl]-7-(4-hydroxyphenyl)hepta-1,6-diene-3,5-dione]	231 to 237	–
CCOc1ccccc1-c1ccc(O)cc1/C=C/C(=O)CC(=O)/C=C/c1ccc(O)cc1 [CU643, (1E,6E)-1-(2′-ethoxy-4-hydroxybiphenyl-2-yl)-7-(4-hydroxyphenyl)hepta-1,6-diene-3,5-dione]	111 to 115	–
COCOc1ccc([N+](=O)[O-])c(/C=C/C(=O)CC(=O)/C=C/c2ccc(O)cc2)c1 [CU649, (1E,6E)-1-(4-hydroxyphenyl)-7-[5-(methoxymethoxy)-2-nitrophenyl]hepta-1,6-diene-3,5-dione]	175 to 180	–
[N-]=[N+]=Nc1ccccc1/C=C/C(=O)CC(=O)/C=C/c1ccc(O)cc1 [CU651, (1E,6E)-1-(2-azidophenyl)-7-(4-hydroxyphenyl)hepta-1,6-diene-3,5-dione]	153 to 161	–
COc1cc(/C=C/C(=O)CC(=O)/C=C/c2ccc(O)cc2)c(Br)c(Br)c1O [CU652, (1E,6E)-1-(2,3-dibromo-4-hydroxy-5-methoxyphenyl)-7-(4-hydroxyphenyl)hepta-1,6-diene-3,5-dione]	215 to 218	–
O=C(/C=C/c1ccc(O)cc1)CC(=O)/C=C/c1ccc(O)cc1Br [CU671, (1E,6E)-1-(2-bromo-4-hydroxyphenyl)-7-(4-hydroxyphenyl)hepta-1,6-diene-3,5-dione]	196 to 205	–
O=C(/C=C/c1ccc(O)cc1)CC(=O)/C=C/c1ccc(N2CCCCC2)cc1Br [CU1090, (1E,6E)-1-[2-bromo-4-(piperidin-1-yl)phenyl]-7-(4-hydroxyphenyl)hepta-1,6-diene-3,5-dione]	238 to 248	–
O=C(/C=C/c1ccc(O)cc1)CC(=O)/C=C/c1ccc(N2CCN(c3ccccc3)CC2)cc1Br [CU1095, (1E,6E)-1-[2-bromo-4-(4-phenylpiperazin-1-yl)phenyl]-7-(4-hydroxyphenyl)hepta-1,6-diene-3,5-dione]	195 to 204	–
COc1cc(/C=C/C(=O)CC(=O)/C=C/c2ccc(O)c(OC)c2)ccc1O [curcumin, reference compound]	–	inhibitory effect on Aβ production [2]: no inhibitory effect

Continued, in another order:

melting point [°C]	Structure (SMILES)	further results
168 to 172	O=C(/C=C/c1ccc(O)cc1)CC(=O)/C=C/c1cc(OCc2ccccc2)ccc1[N+](=O)[O-] [CU475, (1E,6E)-1-(5-benzyloxy-2-nitrophenyl)-7-(4-hydroxyphenyl)hepta-1,6-diene-3,5-dione]	IC50 [1]: 0.74 µM
175 to 179	Nc1ccc(OCc2ccccc2)cc1/C=C/C(=O)CC(=O)/C=C/c1ccc(O)cc1 [CU489, (1E,6E)-1-(2-amino-5-benzyloxyphenyl)-7-(4-hydroxyphenyl)hepta-1,6-diene-3,5-dione]	IC50 [1]: 5.6 µM
158 to 161	O=C(/C=C/c1ccc(O)cc1)CC(=O)/C=C/c1ccccc1Cl [CU624, (1E,6E)-1-(2-chlorophenyl)-7-(4-hydroxyphenyl)hepta-1,6-diene-3,5-dione]	–
93 to 96	CCOC(=O)c1cnnn1-c1ccccc1/C=C/C(=O)CC(=O)/C=C/c1ccc(O)cc1 [CU626, (1E,6E)-1-[2-(5-ethoxycarbonyl-1H-1,2,3-triazol-1-yl)phenyl]-7-(4-hydroxyphenyl)hepta-1,6-diene-3,5-dione]	–
187 to 191	O=C(/C=C/c1ccc(O)cc1)CC(=O)/C=C/c1cc(F)ccc1-c1ccccc1 [CU640, (1E,6E)-1-(4-fluorobiphenyl-2-yl)-7-(4-hydroxyphenyl)hepta-1,6-diene-3,5-dione]	–
193 to 196	O=C(/C=C/c1ccc(O)cc1)CC(=O)/C=C/c1cc(Cl)ccc1-c1ccccc1 [CU641, (1E,6E)-1-(4-chlorobiphenyl-2-yl)-7-(4-hydroxyphenyl)hepta-1,6-diene-3,5-dione]	–
173 to 177	Cc1ccccc1-c1ccc(O)cc1/C=C/C(=O)CC(=O)/C=C/c1ccc(O)cc1 [CU642, (1E,6E)-1-(4-hydroxy-2′-methylbiphenyl-2-yl)-7-(4-hydroxyphenyl)hepta-1,6-diene-3,5-dione]	–
103 to 109	O=C(/C=C/c1ccc(O)cc1)CC(=O)/C=C/c1ccccc1-c1cn(Cc2ccccc2)nn1 [CU644, (1E,6E)-1-[2-(1-benzyl-1H-1,2,3-triazol-4-yl)phenyl]-7-(4-hydroxyphenyl)hepta-1,6-diene-3,5-dione]	–
205 to 215	O=C(/C=C/c1ccc(O)cc1)CC(=O)/C=C/c1ccccc1-c1cnnn1Cc1ccccc1 [CU645, (1E,6E)-1-[2-(1-benzyl-1H-1,2,3-triazol-5-yl)phenyl]-7-(4-hydroxyphenyl)hepta-1,6-diene-3,5-dione]	–
99 to 105	CCOC(=O)Cn1cc(-c2ccccc2/C=C/C(=O)CC(=O)/C=C/c2ccc(O)cc2)nn1 [CU646, (1E,6E)-1-[2-(1-ethoxycarbonylmethyl-1H-1,2,3-triazol-4-yl)phenyl]-7-(4-hydroxyphenyl)hepta-1,6-diene-3,5-dione]	–
169 to 174	CCOC(=O)Cn1nncc1-c1ccccc1/C=C/C(=O)CC(=O)/C=C/c1ccc(O)cc1 [CU647, (1E,6E)-1-[2-(1-ethoxycarbonylmethyl-1H-1,2,3-triazol-5-yl)phenyl]-7-(4-hydroxyphenyl)hepta-1,6-diene-3,5-dione]	–
119 to 128	O=C(/C=C/c1ccc(O)cc1)CC(=O)/C=C/c1ccccc1C=Cc1ccccc1 [CU672, (1E,6E)-1-(4-hydroxyphenyl)-7-(2-styrylphenyl)hepta-1,6-diene-3,5-dione]	–
155 to 161	O=C(/C=C/c1ccc(O)cc1)CC(=O)/C=C/c1ccc(N2CCC(Cc3ccccc3)CC2)cc1Br [CU1091, (1E,6E)-1-[4-(4-benzylpiperidin-1-yl)-2-bromophenyl]-7-(4-hydroxyphenyl)hepta-1,6-diene-3,5-dione]	–

— patent publication US8552220B2, “Therapeutic agent for Alzheimer's disease” (Tokyo Institute of Technology, priority 2008, dated 2013)
